Assay results reported in patent US8455548B2, “Method of treating sensorimotor disorders with alpha-2 adrenergic receptor agonists” (Allergan, Inc., priority 2007, dated 2013).
Marks after values point to notes of the source that are not given here.

What was measured:
[1] = tested on: amphetamine-induced stereotypy; assay: Amphetamine-induced stereotypy (open field locomotor behavior); type: in vivo, C57B/6 male mice; settings: for AMBULATIONS: indicative of hyperactivity; for FINE MOVEMENTS: scored 60 min post-amphetamine, indicative of stereotypy; for inhibition of amphetamine-induced stereotypy (in words): high-dose psychostimulant administration
Experimental: C57B/6 male mice were placed in an open field apparatus and allowed to habituate for 15-30 minutes. Compounds A or B were administered PO at 0, +15, or +30 minutes relative to amphetamine (8 mg/kg) administration (Compound B was also administered 15 minutes pre-amphetamine), and locomotor behavior was scored for an additional 60 minutes post-amphetamine. Amphetamine was administered IP. Locomotion was separated into “fine movements” (indicative of stereotypy) and “ambulations” (indicative of hyperactivity).
Amphetamine induced stereotypy. C57B/6 male mice were placed in an open field apparatus and allowed to habituate for 15-30 minutes. Compounds A or B were administered at 0, +15, or +30 minutes relative to amphetamine (8 mg/kg) administration (Compound B was also administered 15 minutes pre-amphetamine), and locomotor behavior was scored for an additional 60 minutes post-amphetamine. Locomotion was separated into “fine movements” (indicative of stereotypy) and “ambulations” (indicative of hyperactivity).

[2] = tested on: PPI disrupted by psychostimulants; assay: Prepulse inhibition (PPI) of the startle response disrupted by psychostimulants; type: in vivo, Male Sprague-Dawley rats; settings: for % PPI PP3: pre-pulse 3 dB above background; for % PPI PP6: pre-pulse 6 dB above background; for % PPI PP12: pre-pulse 12 dB above background
Experimental: Male Sprague-Dawley rats were treated with Drug 1 (IP) followed 20 minutes later by Drug 2 (IP or SC as indicated in the methods). Ten minutes following administration of Drug 2 (except in the case of apomorphine where animals were immediately tested post-apomorphine), rats were placed in the startle chamber and allowed 5 minutes to acclimate with 65-dB background white noise. The acclimation period was followed by a ˜15 minute test session during which time rats were presented with 40 ms 120 dB startle pulses alone or preceded 100 ms by a pre-pulse 3, 6, or 12 dB above background. These four types of active stimuli were presented in pseudorandom order along with no-stimulation trials to assess baseline activity throughout testing. An average of 20 s separated each trial type. The maximum startle magnitude was measured for every trial type. PPI for each animal was calculated as the percentage startle magnitude to the pre-pulse+pulse or no-stimulation trials relative to the pulse-alone startle magnitude. * and ** indicate differences relative to vehicle+vehicle-treated animals (P<0.05 and P<0.01, respectively).
Prepulse inhibition of the startle response. Sprague Dawley male rats (˜250 g-300 g) are used (n=8/group). Rats are administered drug 1 (vehicle, Compound A, Compound B, or clonidine) followed 20 minutes later by amphetamine (2 mg/kg, s.c.), apomorphine (0.5 mg/kg s.c), PCP (2 mg/kg i.p.) or vehicle (0.9% NaCl, s.c.). Either immediately (apomorphine) or 10 minutes (amphetamine, PCP, or vehicle) following injection of drug 2, animals are placed in the SR-Lab startle chamber (San Diego Instruments, San Diego Calif.). Each rat is acclimated to the chamber for 5 minutes with 65 dB background noise. This acclimation period is followed by a ˜15 minute PPI test session where rats are presented with 120 dB startle pulses without a pre-pulse or pulses preceded by a pre-pulse of 3, 6, or 12 dB above background noise. These active stimuli are presented in pseudorandom order along with no-sound trials, with an average of 20 sec separating each trial (range 5-27 seconds). A sensor in the chamber records the startle magnitude following all stimuli presented. % PPI represents the percentage startle magnitude to the pre-pulse+pulse or no-stim trials relative to the pulse-alone startle magnitude.
The alpha 2B compounds were administered i.p. or p.o., PCP was administered i.p., and apomorphine and amphetamine were administered s.c.

alpha-2A receptor = target: T1, alpha-2A receptor (Homo sapiens, UniProt P08913); assay: Alpha-adrenergic receptor activation (efficacy relative to brimonidine, e.g. RSAT); type: cell-based; settings: lacks significant activity = less than 40% of the efficacy of brimonidine at the alpha-2A receptor subtype
T1 sequence (P08913 1-465): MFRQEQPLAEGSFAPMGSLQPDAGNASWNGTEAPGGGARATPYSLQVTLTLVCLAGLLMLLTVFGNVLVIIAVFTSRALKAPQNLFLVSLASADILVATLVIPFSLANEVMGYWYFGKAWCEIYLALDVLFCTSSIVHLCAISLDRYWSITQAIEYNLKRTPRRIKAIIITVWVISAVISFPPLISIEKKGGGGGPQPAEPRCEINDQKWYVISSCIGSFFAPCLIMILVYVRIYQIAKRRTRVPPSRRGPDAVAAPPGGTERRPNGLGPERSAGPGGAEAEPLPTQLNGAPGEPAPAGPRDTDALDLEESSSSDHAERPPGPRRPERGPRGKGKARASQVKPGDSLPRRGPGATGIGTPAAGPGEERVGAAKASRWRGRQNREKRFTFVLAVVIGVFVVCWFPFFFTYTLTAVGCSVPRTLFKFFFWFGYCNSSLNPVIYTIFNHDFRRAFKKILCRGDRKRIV
Text: The methods of the present invention use alpha-2 agonists lacking significant activity at the alpha-2A receptor subtype. An agonist lacks significant alpha-2A receptor activity if the agonist has less than 40% of the efficacy of brimonidine at the alpha-2A receptor subtype. Compounds of the invention include, therefore, alpha-2B receptor agonists lacking significant alpha-2A activity; alpha 2B/2C receptor agonists lacking significant alpha-2A activity; and alpha-2C receptor agonists lacking significant alpha-2A activity.
Efficacy, also known as intrinsic activity, is a measure of maximal receptor activation achieved by a compound and can be determined using any accepted assay of alpha-adrenergic receptor activation, such as a cAMP or Receptor Selection and Amplification Technology (RSAT). […]
The RSAT assay measures receptor-mediated loss of contact inhibition resulting in selective proliferation of receptor-containing cells in a mixed population of confluent cells. The increase in cell number is assessed with an appropriate detectable marker gene such as beta-galactosidase, if desired, in a high throughput or ultra high throughput assay format. […]
As an example, an RSAT assay can be performed essentially as follows. […] The EC50 and maximal effect (i.e., efficacy) of each drug at each receptor is determined.

[3] = compound PO at 0 min post-amphetamine (8 mg/kg IP)
[4] = compound PO at 15 min post-amphetamine (8 mg/kg IP)
[5] = compound PO at 30 min post-amphetamine (8 mg/kg IP)
[6] = Drug 1 30 ug/kg, Drug 2 Apo (0.5 mg/kg)
[7] = Drug 1 30 ug/kg, Drug 2 PCP (2 mg/kg)
[8] = Drug 1 100 ug/kg, Drug 2 Amph (2 mg/kg)
[9] = Drug 1 0.03 mg/kg, Drug 2 Amph (2 mg/kg)
[10] = compound PO at -15 min relative to amphetamine (8 mg/kg IP)
[11] = Drug 1 10 ug/kg, Drug 2 Amph (2 mg/kg)
[12] = Drug 1 30 ug/kg, Drug 2 Amph (2 mg/kg)

| Structure (SMILES) | AMBULATIONS [1, 3] | FINE MOVEMENTS [1, 3] | AMBULATIONS [1, 4] | FINE MOVEMENTS [1, 4] | AMBULATIONS [1, 5] | FINE MOVEMENTS [1, 5] | inhibition of amphetamine-induced stereotypy (in words) [1] | % PPI PP3 [2, 6] | % PPI PP6 [2, 6] | % PPI PP12 [2, 6] | % PPI PP3 [2, 7] | % PPI PP6 [2, 7] | % PPI PP12 [2, 7] | % PPI PP3 [2, 8] | % PPI PP6 [2, 8] | % PPI PP12 [2, 8] | alpha-2A receptor activity (in words) (alpha-2A receptor) | other results |
| --- | --- | --- | --- | --- | --- | --- | --- | --- | --- | --- | --- | --- | --- | --- | --- | --- | --- | --- |
| OCCNC(=S)NCc1cccc(Cl)c1F [Compound A] | 6338.0 ± 714.1 | 810.1 ± 112.5^⋄ | 14056.6 ± 708.7 | 1312.9 ± 205.2^⋄ | 7494.6 ± 612.3 | 2581.3 ± 359.1 | effectively inhibit stereotypy | 38.5 ± 7.7% | 53.8 ± 6.2% | 58.9% | 40.2 ± 7.5% | 50.6 ± 5.5% | 62.9% | 38.6 ± 7.1% | 50.2 ± 4.7% | 68.5% | lack significant alpha-2A receptor activity | restoration of PPI disrupted by psychostimulants (in words) ([2]; amphetamine, apomorphine, and phencyclidine): significantly inhibited the disruption of PPI |
| Clc1cccc(Cl)c1N=C1NCCN1 [Clonidine, reference compound] | – | – | – | – | – | – | – | 20.0 ± 10.6% | 31.5 ± 11.0% | 24.5% | 31.7 ± 13.5% | 30.1 ± 13.1% | 53.7% | – | – | – | – | % PPI PP3 [2, 9]: 21.8 ± 9.1%; % PPI PP6 [2, 9]: 35.5 ± 8.6%; % PPI PP12 [2, 9]: 51.3% |
| O=C1c2ccccc2CC[C@H]1Cc1c[nH]c(=S)[nH]1 [Compound B] | 9954.8 ± 1042.9 | 736.7 ± 103.4^⋄ | 7226.2 ± 457.3 | 1096.3 ± 79.2^⋄ | 8453.8 ± 461.7 | 1284.8 ± 48.8^⋄ | effectively inhibit stereotypy | – | – | – | – | – | – | 34.5 ± 5.7% | 45.3 ± 7.4% | 67.0% | lack significant alpha-2A receptor activity | AMBULATIONS [1, 10]: 7258.8 ± 672.4; FINE MOVEMENTS [1, 10]: 937.3 ± 47.3^⋄; % PPI PP3 [2, 11]: 28.2 ± 7.4%; % PPI PP6 [2, 11]: 30.9 ± 6.2%*; % PPI PP12 [2, 11]: 46.9%; % PPI PP3 [2, 12]: 25.3 ± 9.2%; % PPI PP6 [2, 12]: 48.6 ± 5.3%; % PPI PP12 [2, 12]: 60.0% |
